# Measurements published in PMC5507300, “Antibacterial small molecules targeting the conserved TOPRIM domain of DNA gyrase” (PLoS ONE, 2017).
# Where two headings read alike, the source gives them in different places.
# How the values were obtained:
# Type in all cases: cell-based
# [1] = tested on: K. pneumoniae CL15245 (clinical isolate); test: Broth microdilution MIC, K. pneumoniae CL15245; conditions: Klebsiella pneumoniae; Table 1; CL15245 K. pneumoniae; read-out: MIC
# From the text: (§1) E. coli HS151 (ΔtolC) has been described previously. […] E. coli BW25113 and the Keio gene deletion collection based on BW25113 [25] were obtained from Thermo Fisher Scientific (Waltham, MA) and described in [26]. The plasmid-borne FQ resistance determinant, qnrVC3 [27], was kindly provided by D. Hooper (Massachusetts General Hospital). […] MB2884 (E. coli) and CL15245 (K. pneumoniae) are clinical isolates from the Merck & Co., Inc., Kenilworth, NJ, USA, strain collection. S. aureus COL is a methicillin-resistant clinical isolate.
# (§2) Compound doubling dilutions were prepared in 100% DMSO (Sigma Aldrich) and 2 μL of each dilution was transferred to a 96-well plate with lid (Thermo Scientific). Inoculum for all MIC testing was prepared using the BBL Prompt Inoculation System (Becton Dickinson, Franklin Lakes, NJ USA) as described by the manufacturer to produce a suspension of cells at approximately 1.5 x 10^8 colony forming units (CFU)/mL [34–36] and a further dilution (1:1000) was made into cation adjusted Mueller-Hinton broth (CAMH broth, Becton-Dickinson). One hundred μL of this inoculum were then transferred to each well of the 96-well plate containing diluted compound (above). Plates were covered and incubated overnight (18 hrs.) at 37°C.
# [2] = tested on: P. aeruginosa MB5919 (PAO1); test: Broth microdilution MIC, P. aeruginosa MB5919; conditions: Pseudomonas aeruginosa, Table 1, MB5919 P. aeruginosa, read-out: MIC
# From the text: as §1, §2
# [3] = tested on: P. aeruginosa(effluxΔ) MB5890; test: microbe, parasite or virus in culture; conditions: Pseudomonas aeruginosa
# From the text: as §1, §2
# E. coli HS151 (ΔtolC) = test: microbe, parasite or virus in culture; conditions: Escherichia coli
# From the text: as §1, §2
# E. coli CIP101 GyrA D87N = test: microbe, parasite or virus in culture; conditions: Escherichia coli
# Method: as §2
# [4] = tested on: A. baumanii MB9797 (ATCC19606); test: Broth microdilution MIC, A. baumannii MB9797; conditions: Acinetobacter baumannii, Table 1, MB9797 A. baumanii, read-out: MIC
# From the text: (§3) E. coli HS151 (ΔtolC) has been described previously. Gyrase inhibitor-resistant isolates (GYR101-108) were derived by selection for spontaneous resistance to MRL-770 or MRL-423 (Fig 1) in E. coli HS151 as described below. E. coli BW25113 and the Keio gene deletion collection based on BW25113 [25] were obtained from Thermo Fisher Scientific (Waltham, MA) and described in [26]. The plasmid-borne FQ resistance determinant, qnrVC3 [27], was kindly provided by D. Hooper (Massachusetts General Hospital). MB9796 (A. baumannii) is a derivative of MB9797 (ATCC19606) lacking lipopolysaccharide. The efflux-defective P. aeruginosa strain MB5890 (CB398) is a derivative of MB5919 (PAO1). MB2884 (E. coli) and CL15245 (K. pneumoniae) are clinical isolates from the Merck & Co., Inc., Kenilworth, NJ, USA, strain collection. S. aureus COL is a methicillin-resistant clinical isolate.
# as §2
# [5] = tested on: A. baumannii ΔlpxC MB9796; test: Broth microdilution MIC, A. baumannii MB9796; conditions: Acinetobacter baumannii
# From the text: as §3, §2
# [6] = tested on: E. coli GYR101 GyrB F513L; test: microbe, parasite or virus in culture; conditions: Escherichia coli
# From the text: as §1, §2
# (§4) After the agar solidified, 5 μL of a saturated bacterial culture, grown in CAMH broth, were dispensed on the agar surface and allowed to dry at room temperature. […] After the surface dried at room temperature the plate was incubated at 37°C overnight. […] Genomic DNA from the parent strain (E. coli HS151) and purified (restreaked) resistant isolates was obtained with a GeneJET genomic DNA purification kit according to the manufacturer’s instructions (Fisher Scientific). Assembled whole genome mutant sequences were then compared to the parent strain and polymorphisms were identified as described.
# [7] = tested on: E. coli GYR105 GyrB T469K; test: microbe, parasite or virus in culture; conditions: Escherichia coli
# From the text: as §1, §2, §4
# [8] = tested on: E. coli GYR102 GyrB E466EV; test: microbe, parasite or virus in culture; conditions: Escherichia coli
# From the text: as §1, §2, §4
# [9] = tested on: E. coli GYR104 GyrB L470I; test: microbe, parasite or virus in culture; conditions: Escherichia coli
# From the text: as §1, §2, §4
# [10] = tested on: E. coli GYR108 GyrB L470I/V467L; test: microbe, parasite or virus in culture; conditions: Escherichia coli
# From the text: as §1, §2, §4
# [11] = tested on: E. coli GYR107 GyrB F513L/L422V; test: microbe, parasite or virus in culture; conditions: Escherichia coli
# From the text: as §1, §2, §4
# [12] = tested on: E. coli GYR106 GyrB F513L/A468V; test: microbe, parasite or virus in culture; conditions: Escherichia coli
# From the text: as §1, §2, §4
# [13] = tested on: E. coli GYR103 GyrB L446Q; test: microbe, parasite or virus in culture; conditions: Escherichia coli
# From the text: as §3, §2
# After the agar solidified, 5 μL of a saturated bacterial culture, grown in CAMH broth, were dispensed on the agar surface and allowed to dry at room temperature. […] To select for resistance, a 100 mm petri dish was filled with 25 mL CAMH agar containing 8 μg/mL MRL-770 or 0.5 μg/mL MRL-423 (Fig 1). The cells in 1 mL of an overnight culture of E. coli HS151 (~10^9 CFU/mL) were concentrated by centrifugation and spread onto the surface of an MRL-770 or MRL-423 containing plate. After the surface dried at room temperature the plate was incubated at 37°C overnight. Any colonies that arose were counted and an approximate frequency of resistance was calculated after confirming resistance by restreaking on media containg compound as well as measuring MICs (see Results). Genomic DNA from the parent strain (E. coli HS151) and purified (restreaked) resistant isolates was obtained with a GeneJET genomic DNA purification kit according to the manufacturer’s instructions (Fisher Scientific). Assembled whole genome mutant sequences were then compared to the parent strain and polymorphisms were identified as described.
# S. aureus (MRSA) COL = test: Broth microdilution MIC, S. aureus COL; conditions: Staphylococcus aureus
# From the text: as §3, §2
# E. coli BW25113 ΔtolC = test: Broth microdilution MIC, E. coli BW25113 ΔtolC; conditions: Escherichia coli
# From the text: as §3, §2
# The yacG deletion allele from the Keio collection was amplified by PCR (primers: […] and […]) and moved to BW25113 ΔtolC as described below. The E. coli strain BW25113 ΔtolC containing pKD46 [25] was used to inoculate SOB (Invitrogen)/0.2% w/v arabinose (Sigma Aldrich)/ampicillin (100 μg/mL) and grown overnight at 30°C. The overnight culture was then diluted 1/40 into 20 mL fresh SOB/0.2% w/v arabinose/ampicillin (100 μg/mL) and grown at 30°C while shaking for ~3 hrs until OD600 = 0.5. […]
# [14] = tested on: E. coli MB2884 (clinical isolate); test: Broth microdilution MIC, E. coli MB2884; conditions: Escherichia coli; Table 1; MB2884 E. coli; read-out: MIC
# From the text: as §1, §2
# [15] = tested on: E. coli BW25113 ΔtolC/ΔyacG; test: Broth microdilution MIC, E. coli BW25113 ΔtolC/ΔyacG; conditions: Escherichia coli, BW25113
# Method: as §2
# The yacG deletion allele from the Keio collection was amplified by PCR (primers: […] and […]) and moved to BW25113 ΔtolC as described below. The E. coli strain BW25113 ΔtolC containing pKD46 [25] was used to inoculate SOB (Invitrogen)/0.2% w/v arabinose (Sigma Aldrich)/ampicillin (100 μg/mL) and grown overnight at 30°C. The overnight culture was then diluted 1/40 into 20 mL fresh SOB/0.2% w/v arabinose/ampicillin (100 μg/mL) and grown at 30°C while shaking for ~3 hrs until OD600 = 0.5. Cells were pelleted by centrifugation at 4000 rpm for 10 min, washed with 40 mL ice cold sterile, distilled H2O, then 3 x 1 mL ice cold 10% glycerol followed by centrifugation at 5000 g for 3 minutes. The pellet was resuspended in 100 μL of 10% glycerol (1/200 of starting culture). For transformation, 5 μL of gel purified PCR product was added to 50 μL cells, mixed, and immediately electroporated in a 0.2 cm gap cuvette at 2.5kV, 25 μF, 200 Ω (BioRad, Hercules, CA USA). Electroporated cells were recovered in 1 mL SOC (Invitrogen)/0.2% arabinose at 37°C for 2 hours with shaking. Cells in amounts of 50 and 950 μL were then plated on LB agar supplemented with kanamycin (25 μg/mL) and incubated overnight at 37°C. Correct gene replacements were verified by PCR.
# E. coli HS151 (qnrVC) = test: Broth microdilution MIC, E. coli HS151 (qnrVC); conditions: Escherichia coli
# From the text: as §3, §2
# [16] = Table 2, HS151, GyrB mutation none
Compound,MIC [1],MIC [2],MIC [3],"MIC (E. coli HS151 (ΔtolC); Table 1, HS151 E. coli ΔtolC)",MIC (E. coli HS151 (ΔtolC); [16]),MIC (E. coli CIP101 GyrA D87N),MIC [4],MIC [5],MIC [6],MIC [7],MIC [8],MIC [9],MIC [10],MIC [11],MIC [12],MIC [13],other results
CN(C)[C@@H]1C(O)=C(C(N)=O)C(=O)[C@@]2(O)C(O)=C3C(=O)c4c(O)cccc4[C@@](C)(O)[C@H]3C[C@@H]12 [tetracycline],2 µg/mL,32 µg/mL,0.25 µg/mL,0.5 µg/mL,0.5 µg/mL,0.5 µg/mL,2 µg/mL,0.25 µg/mL,0.5 µg/mL,0.5 µg/mL,0.5 µg/mL,0.5 µg/mL,0.5 µg/mL,0.5 µg/mL,0.5 µg/mL,0.5 µg/mL,"MIC (S. aureus (MRSA) COL; Table 1, COL S. aureus (MRSA), read-out: MIC): > 64 µg/mL"
CO[C@@H]1[C@@H](OC(N)=O)[C@@H](O)[C@H](Oc2ccc3c(O)c(NC(=O)c4ccc(O)c(CC=C(C)C)c4)c(=O)oc3c2C)OC1(C)C [novobiocin],> 64 µg/mL,64 µg/mL,64 µg/mL,2 µg/mL,2 µg/mL,2 µg/mL,8 µg/mL,< 0.0625 µg/mL,2 µg/mL,2 µg/mL,1 µg/mL,2 µg/mL,2 µg/mL,2 µg/mL,2 µg/mL,2 µg/mL,"MIC (E. coli BW25113 ΔtolC): 2 µg/mL; MIC (E. coli HS151 (ΔtolC); Fig 4 legend, E. coli HS151): 2 µg/mL; MIC (E. coli HS151 (ΔtolC); Table 3, HS151): 2 µg/mL; MIC [14]: > 64 µg/mL; MIC [15]: 2 µg/mL; MIC (E. coli HS151 (qnrVC)): 2 µg/mL; MIC (S. aureus (MRSA) COL; MRSA): 0.125 µg/mL"
